# Laboratory results from US20200164038A1, “MODIFIED NUCLEOSIDE, NUCLEOTIDE, AND NUCLEIC ACID COMPOSITIONS” (ModernaTX, Inc., priority 2011, published 2020).
# How the values were obtained:
# TNF-alpha = experiment: Chemical modification ranges, modified RNA transfected in PBMC, TNF-alpha ELISA; assay type: cell-based, human
# Description: (§1) The supernatant was harvested and run by ELISA 22 hours after transfection to determine the protein expression.
# [1] = test system: peripheral blood mononuclear cells (PBMC); experiment: In vitro PBMC study, percent modification: IFN-alpha and TNF-alpha by ELISA, PC ratio; assay type: cell-based, human
# Description: as §1
# IFN-alpha = experiment: Chemical modification ranges, modified RNA transfected in PBMC, IFN-alpha ELISA; assay type: cell-based, human
# Description: 960 ng of G-CSF mRNA modified with 5-methylcytosine (5mC) and pseudouridine (pseudoU) or unmodified G-CSF mRNA was transfected with 0.8 uL of Lipofectamine 2000 into peripheral blood mononuclear cells (PBMC) from three normal blood donors (D1, D2, D3). […] The supernatant was harvested and run by ELISA 22 hours after transfection to determine the protein expression. The expression of IFN-alpha and TNF-alpha may be a secondary effect from the transfection of the G-CSF mRNA.
# [2] = test system: Human primary foreskin fibroblasts (BJ fibroblasts); experiment: Innate immune response transcripts in BJ fibroblasts, single transfection (qPCR); assay type: cell-based; conditions: 250 ng, 18 hours
# Description: Control samples of poly I:C.
# [3] = Stability of modified RNA on storage (gel electrophoresis); assay type: physicochemical
# Description: Stability experiments were conducted to obtain a better understanding of storage conditions to retain the integrity of modified RNA. […] 40° C. 37° C. 25° C. 4° C. or −20° C. After the mRNA had been stored for 0 hours, 2 hours, 6 hours, 24 hours, 48 hours, 5 days and 14 days, the mRNA was analyzed by gel electrophoresis using a Bio-Rad EXPERION™ system. The modified, unmodified and lipoplexed G-CSF mRNA was also stored in RNASTABLE® (Biomatrica, Inc. San Diego, Calif.) at 40° C. or water at −80° C. or 40° C. for 35 days before being analyzed by gel electrophoresis.
# mRNA samples stored at 4° C. 25° C. and 37° C. were stored in 1×TE buffer or the formulation buffer (150 mM sodium chloride, 2 mM calcium chloride, 2 mM phosphate, 0.5 mM EDTA at a pH of 6.5). The mRNA stored at 4° C. was stable to at least 60 days in both the TE and formulation buffer. At 25° C. the mRNA in formulation buffer was stable out to 14 days and the TE buffer was stable out to at least 6 days. Storage of mRNA in the formulation buffer at 37° C. was stable to 6 days compared to the TE buffer which was stable only until 4 days.
# HEK293 cells = experiment: In vitro expression of VEGF modified mRNA (ELISA); assay type: cell-based
# [4] = Split dose study IM, serum human EPO, product per unit drug and dose splitting factor; assay type: in vivo, mice
# Description: The dosing vehicle (F. buffer) consisted of 150 mM NaCl, 2 mM CaCl2, 2 mM Na^+-phosphate (1.4 mM monobasic sodium phosphate; 0.6 mM dibasic sodium phosphate), and 0.5 mM EDTA, pH 6.5. The pH was adjusted using sodium hydroxide and the final solution was filter sterilized.
# Animals (n=5) were injected IM (intramuscular) for the single unit dose of 100 ug. For multi-dosing, two schedules were used, 3 doses of 100 ug and 6 doses of 100 ug. For the split dosing scheme, two schedules were used, 3 doses at 33.3 ug and 6 doses of 16.5 ug mmRNA. Control dosing involved use of buffer only at 6 doses. […] Blood and muscle tissue were evaluated 13 hrs post injection.
# Human EPO protein was measured in mouse serum 13 h post I.M. single, multi- or split dosing of the EPO mmRNA in buffer. Seven groups of mice (n=5 mice per group) were treated and evaluated.
# The splitting factor is defined as the product per unit drug divided by the single dose product per unit drug (PUD) For example for treatment group 2 the value 0.28 or product (EPO) per unit drug (mmRNA) is divided by the single dose product per unit drug of 0.14. The result is 2. Likewise, for treatment group 4, the value 1.1 or product (EPO) per unit drug (mmRNA) is divided by the single dose product per unit drug of 0.14. The result is 7.9. Consequently, the dose splitting factor (DSF) may be used as an indicator of the efficacy of a split dose regimen. For any single administration of a total daily dose, the DSF should be equal to 1. Therefore any DSF greater than this value in a split dose regimen is an indication of increased efficacy.
# [5] = group 1: 1 × 100 ug, total dose 100 ug
# [6] = group 2: 3 × 100 ug, total dose 300 ug
# [7] = group 3: 3 × 33.3 ug, total dose 600 ug
# [8] = group 4: 3 × 33.3 ug, total dose 100 ug
# [9] = group 5: 6 × 16.5 ug, total dose 100 ug
molecule,measurement,setting,value
poly I:C [P(I)P(C)],TNF-alpha Expression,TNF-alpha; PBMC donor D1,61.2 pg/mL
same,TNF-alpha Expression,TNF-alpha; PBMC donor D2,4.4 pg/mL
same,TNF-alpha Expression,TNF-alpha; PBMC donor D3,69.1 pg/mL
same,IFN-alpha Expression,"[1]; donor D1, 22 hours",130.8 pg/mL
same,TNF-alpha Expression,"[1]; donor D1, 22 hours",765.8 pg/mL
same,IFN-alpha Expression,"[1]; donor D2, 22 hours",297.1 pg/mL
same,TNF-alpha Expression,"[1]; donor D2, 22 hours",2362.7 pg/mL
same,IFN-alpha Expression,"[1]; donor D3, 22 hours",585.2 pg/mL
same,TNF-alpha Expression,"[1]; donor D3, 22 hours",420.4 pg/mL
same,IFN-alpha Expression,IFN-alpha; PBMC donor D1,1498.1 pg/mL
same,IFN-alpha Expression,IFN-alpha; PBMC donor D2,216.8 pg/mL
same,IFN-alpha Expression,IFN-alpha; PBMC donor D3,238.8 pg/mL
same,AIM2 transcript level,[2],0.100 fold-induction relative to HPRT
same,IFIT-1 transcript level,[2],71.914 fold-induction relative to HPRT
same,IFNa transcript level,[2],0.063 fold-induction relative to HPRT
same,IFNb transcript level,[2],1.523 fold-induction relative to HPRT
same,IL6 transcript level,[2],2.8 fold-induction relative to HPRT
same,OAS-1 transcript level,[2],8.628 fold-induction relative to HPRT
same,PKR transcript level,[2],10.326 fold-induction relative to HPRT
same,RIG-I transcript level,[2],30.0 fold-induction relative to HPRT
same,TNFa transcript level,[2],0.264 fold-induction relative to HPRT
"G-CSF unmodified: unmodified G-CSF mRNA SEQ ID NO 6, Cap1 (nucleic acid, listed as Homo sapiens, Cap1) GGGAAAUAAGAGAGAAAAGAAGAGUAAGAAGAAAUAUAAGAGCCACCAUGGCCGGUCCCGCGACCCAAAGCCCCAUGAAACUUAUGGCCCUGCAGUUGCUGCUUUGGCACUCGGCCCUCUGGACAGUCCAAGAAGCGACUCCUCUCGGACCUGCCUCAUCGUUGCCGCAGUCAUUCCUUUUGAAGUGUCUGGAGCAGGUGCGAAAGAUUCAGGGCGAUGGAGCCGCACUCCAAGAGAAGCUCUGCGCGACAUACAAACUUUGCCAUCCCGAGGAGCUCGUACUGCUCGGGCACAGCUUGGGGAUUCCCUGGGCUCCUCUCUCGUCCUGUCCGUCGCAGGCUUUGCAGUUGGCAGGGUGCCUUUCCCAGCUCCACUCCGGUUUGUUCUUGUAUCAGGGACUGCUGCAAGCCCUUGAGGGAAUCUCGCCAGAAUUGGGCCCGACGCUGGACACGUUGCAGCUCGACGUGGCGGAUUUCGCAACAACCAUCUGGCAGCAGAUGGAGGAACUGGGGAUGGCACCCGCGCUGCAGCCCACGCAGGGGGCAAUGCCGGCCUUUGCGUCCGCGUUUCAGCGCAGGGCGGGUGGAGUCCUCGUAGCGAGCCACCUUCAAUCAUUUUUGGAAGUCUCGUACCGGGUGCUGAGACAUCUUGCGCAGCCGUGAAGCGCUGCCUUCUGCGGGGCUUGCCUUCUGGCCAUGCCCUUCUUCUCUCCCUUGCACCUGUACCUCUUGGUCUUUGAAUAAAGCCUGAGUAGGAAG",stable out to,[3]; stored at 25° C.,48 h
same,stable out to,[3]; stored at 37° C.,6 h
same,stable out to,[3]; stored at 50° C.,2 h
"VEGF-A: modified mRNA VEGF-A SEQ ID NO 19, Cap1, fully modified with 5-methylcytosine and pseudouridine, complexed with Lipofectamine2000 (nucleic acid, listed as Homo sapiens, Cap1, polyA tail, 5mC/pseudoU, Lipofectamine2000 complex) GGGAAAUAAGAGAGAAAAGAAGAGUAAGAAGAAAUAUAAGAGCCACCAUGAACUUUCUCUUGUCAUGGGUGCACUGGAGCCUUGCGCUGCUGCUGUAUCUUCAUCACGCUAAGUGGAGCCAGGCCGCACCCAUGGCGGAGGGUGGCGGACAGAAUCACCACGAAGUAGUCAAAUUCAUGGACGUGUACCAGAGGUCGUAUUGCCAUCCGAUUGAAACUCUUGUGGAUAUCUUUCAAGAAUACCCCGAUGAAAUCGAGUACAUUUUCAAACCGUCGUGUGUCCCUCUCAUGAGGUGCGGGGGAUGCUGCAAUGAUGAAGGGUUGGAGUGUGUCCCCACGGAGGAGUCGAAUAUCACAAUGCAAAUCAUGCGCAUCAAACCACAUCAGGGUCAGCAUAUUGGAGAGAUGUCCUUUCUCCAGCACAACAAAUGUGAGUGUAGACCGAAGAAGGACCGAGCCCGACAGGAAAACCCAUGCGGACCGUGCUCCGAGCGGCGCAAACACUUGUUCGUACAAGACCCCCAGACAUGCAAGUGCUCAUGUAAGAAUACCGAUUCGCGGUGUAAGGCGAGACAGCUGGAAUUGAACGAGCGCACGUGUAGGUGCGACAAGCCUAGACGGUGAGCUGCCUUCUGCGGGGCUUGCCUUCUGGCCAUGCCCUUCUUCUCUCCCUUGCACCUGUACCUCUUGGUCUUUGAAUAAAGCCUGAGUAGGAAG",Protein,HEK293 cells; 2 pg transfected,0 pg/mL
same,Protein,HEK293 cells; 10 pg transfected,0 pg/mL
same,Protein,HEK293 cells; 39 pg transfected,0 pg/mL
same,Protein,HEK293 cells; 610 fg transfected,0 pg/mL
"Human EPO mmRNA (nucleic acid, listed as Homo sapiens, 5' Cap1, polyA tail ~160 nt) sense: GGGAAAUAAGAGAGAAAAGAAGAGUAAGAAGAAAUAUAAGAGCCACCAUGGGAGUGCACGAGUGUCCCGCGUGGUUGUGGUUGCUGCUGUCGCUCUUGAGCCUCCCACUGGGACUGCCUGUGCUGGGGGCACCACCCAGAUUGAUCUGCGACUCACGGGUACUUGAGAGGUACCUUCUUGAAGCCAAAGAAGCCGAAAACAUCACAACCGGAUGCGCCGAGCACUGCUCCCUCAAUGAGAACAUUACUGUACCGGAUACAAAGGUCAAUUUCUAUGCAUGGAAGAGAAUGGAAGUAGGACAGCAGGCCGUCGAAGUGUGGCAGGGGCUCGCGCUUUUGUCGGAGGCGGUGUUGCGGGGUCAGGCCCUCCUCGUCAACUCAUCACAGCCGUGGGAGCCCCUCCAACUUCAUGUCGAUAAAGCGGUGUCGGGGCUCCGCAGCUUGACGACGUUGCUUCGGGCUCUGGGCGCACAAAAGGAGGCUAUUUCGCCGCCUGACGCGGCCUCCGCGGCACCCCUCCGAACGAUCACCGCGGACACGUUUAGGAAGCUUUUUAGAGUGUACAGCAAUUUCCUCCGCGGAAAGCUGAAAUUGUAUACUGGUGAAGCGUGUAGGACAGGGGAUCGCUGAUAAGCUGCCUUCUGCGGGGCUUGCCUUCUGGCCAUGCCCUUCUUCUCUCCCUUGCACCUGUACCUCUUGGUCUUUGAAUAAAGCCUGAGUAGGAAG",Dose Splitting Factor,[4]; [5],1
same,Polypeptide per unit drug,[4]; [5],0.14 pmol/µg
same,Dose Splitting Factor,[4]; [6],2
same,Polypeptide per unit drug,[4]; [6],0.28 pmol/µg
same,Dose Splitting Factor,[4]; [7],3.3
same,Polypeptide per unit drug,[4]; [7],0.46 pmol/µg
same,Dose Splitting Factor,[4]; [8],7.9
same,Polypeptide per unit drug,[4]; [8],1.1 pmol/µg
same,Dose Splitting Factor,[4]; [9],9.3
same,Polypeptide per unit drug,[4]; [9],1.3 pmol/µg
